Results published in patent US20170129915A1, “THERAPEUTIC AGENT FOR DISEASES ASSOCIATED WITH NERVE AXON DYSFUNCTION, INCLUDING THERAPEUTIC AGENT FOR ALZHEIMER'S DISEASE” (Resilio Company Limited, priority 2014, published 2017).

What was measured:
[1] = system: spinal cord injury (SCI) model mice; test: Evaluation of hindlimb motor function based on BMS and TMS; type: in vivo; details: suspension in sesame oil, oral once a day, 0.1 μmol/kg·day, 14 days, vs sesame oil alone, FIGS. 4A and 4B
Experimental: Contusion injury was induced in 8-week-old female ddY mice (SLC) by the following procedure to give spinal cord injury (SCI) model mice. The ddY mice were maintained with free access to food and water in a controlled environment (22±2° C., 50±5% humidity, 12-h light/dark cycle starting at 7:00 am) Contusion injury was induced by exposing the lumbar vertebrae of each mouse in accordance with a conventional procedure, then placing the mouse in a stereotaxic apparatus (Narishige), and dropping a 6.5-g weight onto the first lumbar vertebrae (L1) from a height of 2 cm once. The mouse was then subjected to surgical procedures such as suture in a conventional manner. One hour after the induction of the contusion injury, the mice were randomly selected and divided into test groups and were subjected to the administration test described later in Example 10 and Comparative Example 5.
The locomotion behavior in the open field was evaluated using the Basso Mouse Scale (BMS) (see, for example, Engesser-Cesar C, Anderson A J, Basso D M et al., (2005), Voluntary wheel running improves recovery from a moderate spinal cord injury, J Neurotrauma 22: 157-171), which was a general standard for the evaluation of the hindlimb motor function of spinal cord injury model mice, and a 0-30-point Toyama Mouse Scale (TMS), which was a modified BMS established by the inventors for better test accuracy. […]

normal mice (ddY) [2] = test: Object location memory test in normal mice (Reference Test 2); type: in vivo; details: 10 μmol/kg·day, 5 days, ddY male 6 weeks, interval 48 hours
Experimental: ddY Mice were obtained from Japan SLC (Hamamatsu, Japan) In the Examples below, 6-week-old male ddY mice were used as normal mice. All mice were housed with free access to food and water and were kept in a controlled environment at 22±2° C., 50±5% humidity, and 12-h light/dark cycle starting at 7:00 am.
Testing was carried out in a dimly illuminated room (about 100 lx). An appropriate time interval between a training session and a test session was set based on the results of a preliminary test using another group of mice. The object location memory test utilizes animals' habit of showing interest in a novel object. The two opposite walls of a four-walled open-field box for the test had wall coverings with a distinct pattern. […] In the test session, one of the objects was moved to a different location, and the mice were allowed to explore freely for 10 minutes. The increase of the number of times a mouse preferentially explored the identical but relocated object was used as an index of the location memory. That is, the test session determines whether a mouse remembers the previous exposure to an object in the training session. In the Examples below, the ratio (%) of the number of times a mouse explored the object after relocation to the total exploration time was calculated as a preference index. […]

normal mice (ddY) [3] = test: Object recognition memory test in normal mice; type: in vivo; details: Example 12: suspension in sesame oil, oral, 0.1 μmol/kg·day, 4 days; ddY male and female 9 weeks; interval 48 hours; FIG. 10
Experimental: […] All mice were housed with free access to food and water and were kept in a controlled environment at 22±2° C., 50±5% humidity, and 12-h light/dark cycle starting at 7:00 am.
The next day of the measurement of spontaneous motor activity, an object recognition memory test was performed as described in Joyashiki, E. et al., Int J Neurosci, 121, 181-190, 2011 and Tohda, C. et al., Int J Neurosci, 121, 641-648, 2011, reported by the inventors and others. Testing was carried out in a dimly illuminated room (about 100 lx). An appropriate time interval between a training session and a test session was set based on the results of a preliminary test using another group of mice. The object recognition memory test utilizes animals' habit of showing interest in a novel object. The inner walls of the open-field box for the test had no marks. In the training session, two identical objects were placed in the field, and mice were allowed to explore freely for 10 minutes. In the test session, the location of the objects was not changed, but one of the objects was replaced with a novel object, and the mice were allowed to explore freely for 10 minutes. […] In the Examples below, the ratio (%) of the number of times a mouse explored the novel object to the total exploration time was calculated as a preference index. […]

normal or AD model mice = details: intraperitoneal administration; cited from earlier work

SMILES | hindlimb motor function (BMS and TMS scores) [1] | memory enhancing effect, object location memory test (normal mice (ddY) [2]; Reference Example 1: dissolved in aqueous solvent (ethanol/5% glucose), oral, FIG. 6A) | memory enhancing effect, object location memory test (normal mice (ddY) [2]; Reference Example 2: dissolved in aqueous solvent, intraperitoneal, FIG. 6B) | object recognition memory (normal mice (ddY) [3]) | memory (normal or AD model mice)
C[C@@H]1CC[C@@]2(OC1)O[C@H]1C[C@H]3[C@@H]4CC=C5C[C@@H](F)CC[C@]5(C)[C@H]4CC[C@]3(C)[C@H]1[C@@H]2C [Dios-F, (3β,25R)-3-fluorospirost-5-ene] | significantly improved | – | – | – | –
C[C@@H]1CC[C@@]2(OC1)O[C@H]1C[C@H]3[C@@H]4CC=C5C[C@@H](O)CC[C@]5(C)[C@H]4CC[C@]3(C)[C@H]1[C@@H]2C [diosgenin, Diosgenin] | – | no memory enhancing effect | a significant memory enhancing effect | a significant enhancement of the object recognition memory | enhanced the memory
